Source: PMC4731763, “Naturally occurring proteinaceous nanoparticles in Coptidis Rhizoma extract act as concentration-dependent carriers that facilitate berberine absorption” (Scientific Reports, 2016)
Like-named read-outs stand apart in the source and are kept apart here.

How the values were obtained:
P-gp = conditions: cited from earlier work
[1] = set-up: method as in PMID 20138204; conditions: cited from earlier work
[2] = Pharmacokinetics in mice: plasma berberine exposure after oral administration; format: in vivo; conditions: both sexes, Kun-Ming, mouse
Method: A Shimadzu Prominence UFLCXR series HPLC (Shimadzu, Japan) and a Thermo Scientific TSQ Quantum Ultra mass spectrometer (Thermo Scientific, Waltham, MA, USA) equipped with an electrospray ionization (ESI) source were used. The samples were precipitated with 3 volumes of acetonitrile. Carbamazepine was used as the internal standard. After centrifugation (24,000 g, 6 min, 4 °C), the supernatant was mixed with an equal volume of water and 10-μL samples were injected into the LC-MS/MS system. The samples were eluted through a Hypersil Gold (C18) analytical column (5 μm, 100 × 2.1 mm) with a gradient of the aqueous phase (0.08% v/v formic acid and 2 mM ammonium acetate) and the acetonitrile phase (0 min, 85:15; 7 min, 32:68; 7.01 min, 85:15; 10 min, 85:15) at a flow rate of 0.3 mL/min. The ESI source was set to positive ion mode. Data acquisition was performed in the multiple reaction monitoring mode of the selective mass transition for each compound. The transitions from the precursor ions to the protonated fragment product ions were monitored: m/z 336.15 → m/z 322.28 for berberine and m/z 237.00 → m/z 194.31 for carbamazepine. The linear dynamic range for berberine in the tested biological samples was 0.5 to 500 ng/mL. […] The accuracy, precision, recovery, and stability tests all met the requirements of quantitative determination in biological samples. […]

mice = conditions: mouse, in vivo
Method: The mice (n = 20 mice per group, 10 males and 10 females) were orally administered the test materials and the reactions of the mice were recorded for 7 days. Using this method, the acute oral toxicities of the following materials were tested at the dose volume of 0.2 mL/10 g body weight (dissolved in water) and compared: (1) the Coptidis Rhizoma extract (1 or 3 g/kg); (2) the supernatant of the Coptidis Rhizoma extract (3 g/kg) after centrifugation (300,000 g, 30 min, 4 °C); (3) pure berberine (206 or 618 mg/kg, equal to the dose of berberine in the 1 and 3 g/kg extracts, respectively); (4) alkaloid extract of Coptidis Rhizoma (1259 mg/kg, equal to the dose of berberine in the 3 g/kg extract).

Row | Compound | Effect on P-gp (P-gp) | P-gp substrate status (P-gp) | Toxicity in vivo after oral administration [1] | AUC(0-t) ([2]; 206 mg/kg pure berberine, read-out: Plasma berberine AUC0–24 h) [µg·h/mL] | AUC(0-t) ([2]; 618 mg/kg pure berberine, read-out: Plasma berberine AUC0–4 h) [µg·h/mL] | Acute oral toxicity (survival of mice) (mice; 206 mg/kg) | Acute oral toxicity (reaction or death of mice) (mice; 618 mg/kg)
1 | COc1cc([C@H]2Oc3cc(-c4cc(=O)c5c(O)cc(O)cc5o4)cc(OC)c3O[C@@H]2CO)ccc1O (racemic) [5′-methoxyhydnocarpin] | inhibitory effects on P-gp | – | – | – | – | – | –
2 | COc1ccc2cc3[n+](cc2c1OC)CCc1cc2c(cc1-3)OCO2 [pure berberine, berberine] | – | P-gp substrate | weak toxicity | 0.722 | 0.0221 | survived | did not show toxic reactions
